In paper PMC7731283, “Synthesis and Biological Evaluation of Halogenated E-Stilbenols as Promising Antiaging Agents” (Molecules, 2020):

What was measured:
[1] = Log P by RP-HPLC (HPLC-PDA), extrapolation of Log k to 0% MeOH; assay type: physicochemical; settings: for Log k / Retention factor (k): RP-C18
Description: For each compound, the retention time was reported at different percentages of mobile phases (Table 1). See Materials and Methods and Supplementary Materials for the detailed procedures. (1) k= tR− tM/tM where tR is the retention time of the sample and tM is the retention time of blank (methanol).
Stock solutions of each compound were prepared as follow: 1 mg of the synthesized compound and RSV (control) was weighted and dissolved in 1 mL of dimethyl sulfoxide (DMSO). The working solutions were prepared in methanol at 100 µg/mL. 20 µL of working solutions was injected in HPLC system without pre-treatment.
The HPLC analyses for all new compounds were carried out in isocratic conditions with Milli-Q Water (18.2 MΩ-cm at 25 °C) as solvent A and MeOH as solvent B in different percentages reported in […]. RP-C18 stationary phase (LiChrosorb C18, 150 × 4.6 mm, 5 µm) column was used. All compounds were detected at their maximum wavelength: 322 nm for 1, 301 nm for 2, 324 nm for 3, 324 nm for 4, 373 nm for 5, 322 nm for 6, 320 nm for 7, whereas RSV was detected at 306 nm. The total run time was kept until sample elution.

C2C12 cells [2] = assay: MTT assay, cell vitality/proliferation; assay type: cell-based, mouse
Description: The oxidative stress plays one of the key roles in cell’s life path. For these reasons, to evaluate the possible cytotoxic effects of compounds 1–7 and their effect on the cell proliferative capacity and to define a suitable concentration range, all the new synthesized compounds 1–7 were evaluated for their cytotoxic activity at three different concentrations (1, 10 and 100 μM) via standard MTT assay, using C2C12 cell line (Figure 3). Due to well-known antioxidant and neurodegenerative senescence prevention abilities in addition to enhancing the beneficial effects of physical exercise on the skeletal muscles of the elderly, RSV was used as reference compound [54, 55]. […] For this reason, we performed the same assay also at 48 h for the compounds 5, 6 and RSV (Figure 4).
Prompted by the results obtained for compound 6 as a scavenge ROS due the presence of halogenated groups, we used the widely C2C12 mouse cells as a myogenic model, to study its antioxidant effects following both the evaluation of superoxide anion radical concentration and chemical insults, such as from H2O2. C2C12 cells (CRL 1772; American Type Culture Collection, Rockville, MD, USA) were grown in Dulbecco’s modified Eagle’s medium (DMEM; Euroclone, Pero, Italy) containing 20% foetal bovine serum (Euroclone), […] L-glutamine (Euroclone) and 100 IU mL^−1 penicillin and 100 μg mL^−1 streptomycin (Euroclone). The cells were maintained at 37 °C in a 5% CO2 humidified atmosphere.
Cellular proliferation was tested using a colorimetric assay of 3-[4,5-dimethylthiazol-2-yl]-2,5-diphenyltetrazolium bromide (MTT). We seeded 2000 cells/well in a final volume of 200 μL growth medium in 96-well plates. After 24 h the cells were stimulated with or w/o the newly synthesized compounds for 24 h, or, where indicated, for 48 h. We tested seven new synthesized compounds together with RSV reference at different concentration (1, 10, 100 μM). All compounds were dissolved in DMSO and the experimental dilutions used were made using cellular growth medium. For this reason, the cells were also incubated for 24 h with the DMSO at the same concentration used for the compounds. Incubation was terminated by adding 20 μL of MTT solution (5 mg mL^−1 in phosphate-buffered saline (PBS)) to each well, followed by incubation at 37 °C for 3 h in the dark. After, the plates were centrifuged at 2000 rpm for 15 min. The supernatant was removed, 200 μL dimethylsulfoxide (DMSO) was added to each well, and the plates were incubated for 30 min at 37 °C in the dark. Finally, the plates were read at 540 nm on a scanning multi-well spectrophotometer (Cary50MPR, Varian, Santa Clara, CA, USA).

C2C12 cells [3] = assay: NBT assay, superoxide anion detection; assay type: cell-based, mouse; settings: C2C12, 24 h incubation, 1 and 10 μM
Description: At first, the antioxidant effect of compound 6 was assessed by NBT assay (Figure 5). The NBT assay is based on the reduction of NBT into formazan by superoxide anion O2^-. […] The concentration of superoxide anion radical in the cells was determined by spectrophotometric method and is based on the reduction of Nitro blue tetrazolium chloride to Nitro blue-formazan in the presence of O2^-.
Since that during aging, among the ROS there are radicals as superoxide anion that can levels increase, [32] we used NBT assay in order to evaluate the antioxidant capacity of compound 6. C2C12 cells (10^6 cells) were stimulated with or w/o the compound 6 at 1 and 10 μM together with the RSV for 24 h, harvested, centrifuged for 5 min at 1200 rpm and resuspended in 1 mL 0.9% NaCl in which NBT (Nitro blue tetrazolium chloride) is dissolved 1 mg/mL. The cells were incubated for 3 h at 37 °C, centrifuged (for 10 min at 1200 rpm), resuspended in 1 mL DMSO and left 20’ in 37 °C. For the assay, the cells were plated in a 96 well plate (2 × 10^5 cell/well) and read by spectrophotometer at 550 nm on a scanning multi-well spectrophotometer (Cary50MPR, Varian, Santa Clara, CA, USA).

C2C12 cells [4] = assay: H2DCFDA assay, intracellular ROS after H2O2 insult; assay type: cell-based, mouse; settings: for ROS levels (H2DCFDA fluorescence): C2C12, 24 h pretreatment, 300 µM H2O2, compared to CTRL
Description: Indeed, the antioxidant activity of compound 6 was also evaluated using an H2DCFDA assay (Figure 6). This assay is one of the most widely used techniques for directly measuring the redox state of a cell. In order to accurately measure ROS and the cellular capability to counteract the H2O2 insult, we used cell-permeable fluorescent and chemiluminescent probes. The fluorescence intensity is proportional to the ROS levels within the cell cytosol and it is in inverse relation to the antioxidant capacity of the cells themselves. The ability to restore the basal level of fluorescence are reported in Figure 6, after 0.5 and 10 min following oxidant stimulus.
Intracellular ROS were quantified by the 2′,7′-dichlorodihydrofluorescein diacetate (H2DCF-DA Cat. No. D6883; Sigma). C2C12 cells were plated (2000 cells/well) into special optics 96-well plates (Corning-Costar, New York, NY, USA) and the cells were treated with RSV at 1 µM and Compound 6 at 1 and 10 µM for 24 h. After the incubation, cells were washed with an imaging buffer and treated with 300 µM H2O2 for an immediate fluorescence measurement. Plates were read every 50 s from 0 to 10 min for kinetic data analysis using a microplate reader (Synergy H1, BioTek), with excitation and emission wavelengths at 490 nm and 520 nm, respectively, and analyzed by Gen 5 version 2.08 (BioTek).

[5] = cited from earlier work
[6] = Log P estimated by RP-HPLC, extrapolated to 0% MeOH, SD at 95% confidence interval

| Compound | Log k ([1]; 60% MeOH) | Retention factor (k) ([1]; 60% MeOH) | Log k ([1]; 65% MeOH) | Retention factor (k) ([1]; 65% MeOH) | Log k ([1]; 70% MeOH) | Retention factor (k) ([1]; 70% MeOH) | Log k ([1]; 75% MeOH) | Retention factor (k) ([1]; 75% MeOH) | Log k ([1]; 80% MeOH) | Retention factor (k) ([1]; 80% MeOH) | chromatographic logP [1, 6] | melting point [°C] | cell vitality (MTT reduction) (C2C12 cells [2]; C2C12, 48 h, 1 and 10 μM) | other results |
| --- | --- | --- | --- | --- | --- | --- | --- | --- | --- | --- | --- | --- | --- | --- |
| Oc1ccc(/C=C/c2ccc(Cl)cc2)cc1 [Compound 1, 4-[(E)-2-(4-Chlorophenyl)vinyl]phenol] | 0.9828 | 9.6110 | 0.6845 | 4.8361 | 0.4010 | 2.5176 | 0.1330 | 1.3584 | −0.1255 | 0.7490 | 4.29 ± 0.07 | 184 to 185 | – | – |
| Oc1ccc(/C=C/c2ccccc2)cc1Cl [Compound 2, 2-Chloro-4-[(E)-2-phenylvinyl]phenol] | 1.0560 | 11.3757 | 0.7826 | 6.0620 | 0.5049 | 3.1984 | 0.2243 | 1.6761 | 0.0216 | 1.0510 | 4.2 ± 0.12 | 126 to 127 | – | – |
| Oc1ccc(/C=C/c2ccc(Cl)cc2Cl)cc1 [Compound 3, 4-[(E)-2-(2,4-Dichlorophenyl)vinyl]phenol] | 1.4819 | 30.3325 | – | – | 0.8936 | 7.8267 | 0.6070 | 4.0455 | 0.3308 | 2.1420 | 5.11 ± 0.07 | 119 to 120 | – | Log k ([1]; 50% MeOH): 2.1310; Retention factor (k) ([1]; 50% MeOH): 135.2173 |
| Oc1ccc(/C=C/c2ccc(Cl)cc2Cl)cc1Cl [Compound 4, 2-Chloro-4-[(E)-2-(2,4-dichlorophenyl)vinyl] phenol] | 1.7713 | 59.0580 | 1.4456 | 27.8973 | 1.1149 | 13.0290 | 0.7826 | 6.0620 | 0.5423 | 3.4855 | > 5 | 135 to 136 | – | Log P * ± SD [1, 6]: 5.50 ± 0.14 |
| Oc1ccc(/C=C/c2ccc(C(F)(F)F)cc2)cc1Cl [Compound 6, 2-Chloro-4-{(E)-2-[4-(trifluoromethyl)phenyl]vinyl}phenol] | 1.4227 | 26.4651 | 1.0820 | 12.0776 | 0.7645 | 5.8149 | 0.4605 | 2.8871 | 0.1498 | 1.4118 | 5.21 ± 0.06 | 117 to 118.4 | enhanced vitality | cell vitality (MTT reduction) (C2C12 cells [2]; C2C12, 24 h, 100 μM): drastically reduced the vitality; cell vitality (MTT reduction) (C2C12 cells [2]; C2C12, 24 h, 1 and 10 μM): significant increase of the cell vitality; cell vitality (MTT reduction) (C2C12 cells [2]; C2C12, 48 h, 1 μM): moderate effect; cell vitality (MTT reduction) (C2C12 cells [2]; C2C12, 48 h, 10 μM): higher effect; O2- levels (NBT assay) (C2C12 cells [3]): significant decrease of O2^- levels; antioxidant capacity with respect to RSV (C2C12 cells [4]; C2C12, 10 μM, 300 µM H2O2): significantly higher antioxidant capacity; oxidant insult by H2O2 (H2DCFDA fluorescence) (C2C12 cells [4]; C2C12, 10 μM, 24 h pretreatment, 300 µM H2O2, stable throughout time-course): strongly counteracted; ROS levels (H2DCFDA fluorescence) (C2C12 cells [4]): reduce the ROS levels |

Continued, in another order:

| Log k ([1]; 60% MeOH) | Retention factor (k) ([1]; 60% MeOH) | Log k ([1]; 65% MeOH) | Retention factor (k) ([1]; 65% MeOH) | Log k ([1]; 70% MeOH) | Retention factor (k) ([1]; 70% MeOH) | Log k ([1]; 75% MeOH) | Retention factor (k) ([1]; 75% MeOH) | Log k ([1]; 80% MeOH) | Retention factor (k) ([1]; 80% MeOH) | chromatographic logP [1, 6] | melting point [°C] | Compound | cell vitality (MTT reduction) (C2C12 cells [2]; C2C12, 48 h, 1 and 10 μM) | other results |
| --- | --- | --- | --- | --- | --- | --- | --- | --- | --- | --- | --- | --- | --- | --- |
| 0.9974 | 9.9412 | 0.7161 | 5.2008 | 0.4442 | 2.7812 | 0.1536 | 1.4243 | −0.0669 | 0.8573 | 4.22 ± 0.09 | – | O=[N+]([O-])c1ccc(/C=C/c2ccc(O)c(Cl)c2)cc1 [Compound 5] | non-significant dose-dependent decrease of vitality | – |
| 1.1515 | 14.1757 | 0.8368 | 6.8682 | 0.5372 | 3.4447 | 0.2568 | 1.8063 | −0.0429 | 0.9059 | 4.7 ± 0.05 | 161 to 163 | Oc1ccc(/C=C/c2ccc(C(F)(F)F)cc2)cc1 [Compound 7, 4-{(E)-2-[4-(Trifluoromethyl)phenyl]vinyl}phenol] | – | – |
| – | – | – | – | – | – | – | – | – | – | 2.47 ± 0.11 | – | Oc1ccc(/C=C/c2cc(O)cc(O)c2)cc1 [RSV, 3,5,4′-trihydroxy-trans-stilbene, reference compound] | did not change the effects respect to the control | Log k ([1]; 20% MeOH): 1.6477; Retention factor (k) ([1]; 20% MeOH): 44.4282; Log k ([1]; 25% MeOH): 1.3573; Retention factor (k) ([1]; 25% MeOH): 22.7655; Log k ([1]; 30% MeOH): 1.0693; Retention factor (k) ([1]; 30% MeOH): 11.7294; Log k ([1]; 40% MeOH): 0.5493; Retention factor (k) ([1]; 40% MeOH): 3.5427; Log k ([1]; 50% MeOH): 0.0010; Retention factor (k) ([1]; 50% MeOH): 1.0024; ROS levels (H2DCFDA fluorescence) (C2C12 cells [4]): reduce the ROS levels; bioavailability [5]: less than 1%; oral bioavailability ([5]; in vivo): almost zero |
